Counter-ions that a name gives are not always drawn. Like-named read-outs stand apart in the source and are kept apart here.
What was measured:
[1] = cited from earlier work
[2] = Solubility of nalmefene HCl in water as a function of pH; format: physicochemical; conditions: aqueous buffer, read-out: Matematically determined solubility in water
Method: (§1) Cs is the water solubility of nalmefene.
Because the water solubility of nalmefene was not available in the literature for all the pH values used in the permeation study, the solubilities at pH values 6.5, 7.0, 7.5, and 8.0 were determined matematically from a diagram that described the logarithm of the solubility listed on Table 5 as a function of pH (Cs,pH).

[3] = test system: MDCK cell membranes; experiment: In vitro permeation study, MDCK cell membranes; format: in vitro ADME, canine
Method: (§2) MDCK cells were seeded onto the coated filters at a concentration of about 100,000 cells/cm^2. The culture medium was both in apical and basolateral chambers during the whole culture period, and the culture medium was changed every day. The cells were confluent within three days. […] The incubator environment was the same as described above.
(§3) MDCK cells were used for the permeation study on the 4th day when the TER value was about 250 Ω×cm^2. HBSS (Gibco, Paisley, Skotlanti) /10 mM HEPES was used a buffer solution. The permeation study was performed as described above. All the permeation studies were performed at 37° C. using a horizontal plate mixer (Heidolph Inkubator 1000 and Titramax 1000; Heidolph Electro GmbH & Co., Kelheim, Germany). After the studies, TER was metered. The TER data were not changed during the permeability studies.
(§4) The apparent permeability coefficients were calculated as:
(§5) Papp=J/(C×S), (Equation 1)
as §1

[4] = In vitro permeation study, MDCK cell membranes; format: in vitro ADME, canine; conditions: dog
Method: as §2, §3, §4, §5, §1

[5] = cited from earlier work; remark: listed apart in the source
[6] = test system: HCE cell membranes; experiment: In vitro permeation study, HCE cell membranes; conditions: HCE, Papp × water solubility
[7] = In vitro permeation study, HCE cell membranes; conditions: human
[8] = test system: subjects with impaired control of alcohol drinking; experiment: Randomized, double-blind, placebo-controlled dose-response study of nalmefene once daily for 16 weeks; format: in vivo, human; conditions: for Spouse or significant other estimate of frequency of intoxication: At least once a week (number of subjects) / Spouse or significant other estimate of frequency of intoxication: At least once a week (share of subjects) / Spouse or significant other estimate of frequency of intoxication: Every day (number of subjects) / Spouse or significant other estimate of frequency of intoxication: Every day (share of subjects) / Spouse or significant other estimate of frequency of intoxication: Never (number of subjects) / Spouse or significant other estimate of frequency of intoxication: Never (share of subjects) / Spouse or significant other estimate of frequency of intoxication: Once or twice (number of subjects) / Spouse or significant other estimate of frequency of intoxication: Once or twice (share of subjects) / Spouse or significant other estimate of frequency of intoxication: Several times a month (number of subjects) / Spouse or significant other estimate of frequency of intoxication: Several times a month (share of subjects): week 16
Method: A randomized, double-blind, placebo-controlled, multicenter, parallel group, dose-response study was conducted comparing placebo and two doses of nalmefene.
The subjects were randomly allocated to receive placebo, 10 mg of nalmefene or 40 mg of nalmefene once daily for 16 weeks. […] During their participation in the study, the subjects were allowed to receive general counseling, but not any psychotherapy or other specific alcoholism treatment, including pharmacotherapy. The study consisted of a screening period (screening and inclusion visits) not exceeding 2 weeks, during which the eligibility of the study subjects were evaluated, and follow-up visits at 1, 3, 6, 9, 12, and 16 weeks after the study medication was started.
The alcohol consumption was assessed with the Time Line Follow Back Method. The primary efficacy variable was the number of Heavy Drinking Days (HDDs) per month (defined as 28 days). A Heavy Drinking Day (HDD) was defined as a day when a male subject consumed 5 or more, or a female subject consumed 4 or more standard drinks. A standard drink contains approximately 12 g of ethanol. Secondary efficacy measures included other drinking variables (number of Drinking Days (DDs), ratio of HDDs to DDs, total consumption, and maximum and average intensity of drinking), Obsessive Compulsive Drinking Scale (OCDS), Alcohol Dependence Scale (ADS) and Drinkers Inventory of Consequences -scale (DrInC), clinical laboratory markers (ALAT, GGT, CDT, and MCV) and collateral reports.
The monthly drinking of the subjects during the 12 weeks prior to the study was determined first to get a baseline. The total alcohol consumption was 25% higher in the FAH+ subject than in the FAH− subject. The number of HDDs and the number of DDs were at a similar level in all subgroups.
The estimate on the subject's frequency of intoxication by subject's spouse or significant other was obtained again at the end of the study. Within the FAH+ subjects, there were more subjects in nalmefene 40 mg groups in categories “never” and “once or twice” than in other groups, and no subjects in the categories “at least once a week” or “every day”.

## C=C1CC[C@@]2(O)[C@H]3Cc4ccc(O)c5c4[C@@]2(CCN3CC2CC2)[C@H]1O5 [Nalmefene HCl]
[1]; pH 2.25
  Solubility in water: 128 mg/mL
[1]; pH 5.71
  Solubility in water: 131 mg/mL
[1]; pH 6.115
  Solubility in water: 133 mg/mL
[1]; pH 6.25
  Solubility in water: 124 mg/mL
[1]; pH 7.85
  Solubility in water: 1.09 mg/mL
[1]; pH 8.5
  Solubility in water: 0.180 mg/mL
[1]; pH 9.15
  Solubility in water: 0.090 mg/mL
[1]; pH 10.4
  Solubility in water: 0.230 mg/mL
[2]; pH 6.5, from diagram of log solubility of Table 5 vs pH
  solubility: 112 mg/mL
[2]; pH 7.0, from diagram of log solubility of Table 5 vs pH
  solubility: 88.6 mg/mL
[2]; pH 7.5, from diagram of log solubility of Table 5 vs pH
  solubility: 31.9 mg/mL
[2]; pH 8.0, from diagram of log solubility of Table 5 vs pH
  solubility: 0.44 mg/mL

## C=C1CC[C@@]2(O)[C@H]3Cc4ccc(O)c5c4[C@@]2(CCN3CC2CC2)[C@H]1O5 [nalmefene]
[3]; pH 6.5, n = 4, Papp × water solubility
  Maximal administration rate Jmax × 10^−6 ± SD: 1273 ± 66 × 10^−6 mg/(cm^2 s)
[3]; pH 7.0, n = 4, Papp × water solubility
  Maximal administration rate Jmax × 10^−6 ± SD: 1618 ± 14 × 10^−6 mg/(cm^2 s)
[3]; pH 7.5, n = 4, Papp × water solubility
  Maximal administration rate Jmax × 10^−6 ± SD: 723 ± 34 × 10^−6 mg/(cm^2 s)
[3]; pH 8.0, n = 4, Papp × water solubility
  Maximal administration rate Jmax × 10^−6 ± SD: 10.6 ± 1.1 × 10^−6 mg/(cm^2 s)
[4]; pH 6.5, n = 4, read-out: Permeability factor (Papp ± SD)
  Papp A→B at 180 min, 500 μM: 11.4 ± 0.59 ×10⁻⁶ cm/s
[4]; pH 7.0, n = 4, read-out: Permeability factor (Papp ± SD)
  Papp A→B at 180 min, 500 μM: 18.27 ± 0.16 ×10⁻⁶ cm/s
[4]; pH 7.5, n = 4, read-out: Permeability factor (Papp ± SD)
  Papp A→B at 180 min, 500 μM: 22.7 ± 1.08 ×10⁻⁶ cm/s
[4]; pH 8.0, n = 4, read-out: Permeability factor (Papp ± SD)
  Papp A→B at 180 min, 500 μM: 23.9 ± 2.49 ×10⁻⁶ cm/s
[5]
  pKa: 7.63
[6]; pH 6.5, n = 4
  Maximal administration rate Jmax × 10^−6 ± SD: 879 ± 32 × 10^−6 mg/(cm^2 s)
[6]; pH 7.0, n = 4
  Maximal administration rate Jmax × 10^−6 ± SD: 1072 ± 70 × 10^−6 mg/(cm^2 s)
[6]; pH 7.5, n = 4
  Maximal administration rate Jmax × 10^−6 ± SD: 423 ± 19 × 10^−6 mg/(cm^2 s)
[6]; pH 8.0, n = 4
  Maximal administration rate Jmax × 10^−6 ± SD: 6.0 ± 0.7 × 10^−6 mg/(cm^2 s)
[7]; pH 6.5
  Papp A→B at 180 min, 500 μM: 7.86 ± 0.29 ×10⁻⁶ cm/s
[7]; pH 7
  Papp A→B at 180 min, 500 μM: 12.1 ± 0.79 ×10⁻⁶ cm/s
[7]; pH 7.5
  Papp A→B at 180 min, 500 μM: 13.3 ± 0.61 ×10⁻⁶ cm/s
[7]; pH 8
  Papp A→B at 180 min, 500 μM: 13.6 ± 1.64 ×10⁻⁶ cm/s
[8]; FAH+ subjects, 10 mg once daily
  number of HDDs: smaller reduction in the early phase of the treatment
[8]; FAH+ subjects, 10 mg, first month of treatment
  total alcohol consumption and number of HDDs: positive tendency
[8]; FAH+ subjects, 10 mg
  Spouse or significant other estimate of frequency of intoxication: At least once a week (number of subjects): 4
  Spouse or significant other estimate of frequency of intoxication: At least once a week (share of subjects): 21%
  Spouse or significant other estimate of frequency of intoxication: Every day (number of subjects): 0
  Spouse or significant other estimate of frequency of intoxication: Every day (share of subjects): 0%
  Spouse or significant other estimate of frequency of intoxication: Never (number of subjects): 1
  Spouse or significant other estimate of frequency of intoxication: Never (share of subjects): 5%
  Spouse or significant other estimate of frequency of intoxication: Once or twice (number of subjects): 6
  Spouse or significant other estimate of frequency of intoxication: Once or twice (share of subjects): 32%
  Spouse or significant other estimate of frequency of intoxication: Several times a month (number of subjects): 8
  Spouse or significant other estimate of frequency of intoxication: Several times a month (share of subjects): 42%
[8]; FAH+ subjects, 40 mg daily oral, 4th month of treatment
  reduction of mean number of HDDs versus baseline: about 60%
[8]; FAH+ subjects, 40 mg daily, after treatment, baseline 85%
  ratio of the number of HDDs to DDs: 43%
[8]; FAH+ subjects, 40 mg once daily
  number of DDs: clear reduction
[8]; FAH+ subjects, 40 mg once daily oral, on treatment, baseline 14.5
  mean number of HDDs per month (28 days): 6.0
[8]; FAH+ subjects, 40 mg, 4th month
  mean number of drinks (monthly total alcohol consumption) as % of baseline: about 40%
[8]; FAH+ subjects, 40 mg
  Spouse or significant other estimate of frequency of intoxication: At least once a week (number of subjects): 0
  Spouse or significant other estimate of frequency of intoxication: At least once a week (share of subjects): 0%
  Spouse or significant other estimate of frequency of intoxication: Every day (number of subjects): 0
  Spouse or significant other estimate of frequency of intoxication: Every day (share of subjects): 0%
  Spouse or significant other estimate of frequency of intoxication: Never (number of subjects): 3
  Spouse or significant other estimate of frequency of intoxication: Never (share of subjects): 14%
  Spouse or significant other estimate of frequency of intoxication: Once or twice (number of subjects): 9
  Spouse or significant other estimate of frequency of intoxication: Once or twice (share of subjects): 41%
  Spouse or significant other estimate of frequency of intoxication: Several times a month (number of subjects): 14
  Spouse or significant other estimate of frequency of intoxication: Several times a month (share of subjects): 45%
[8]; FAH+ subjects, daily oral 40 mg, fourth month of treatment (as worded)
  mean number of heavy drinking days reduced by: 40%
[8]; FAH- subjects
  treatment effects on alcohol consumption versus placebo: not distinguishable from placebo
[8]; FAH- subjects, 10 mg
  Spouse or significant other estimate of frequency of intoxication: At least once a week (number of subjects): 1
  Spouse or significant other estimate of frequency of intoxication: At least once a week (share of subjects): 9%
  Spouse or significant other estimate of frequency of intoxication: Every day (number of subjects): 1
  Spouse or significant other estimate of frequency of intoxication: Every day (share of subjects): 9%
  Spouse or significant other estimate of frequency of intoxication: Never (number of subjects): 1
  Spouse or significant other estimate of frequency of intoxication: Never (share of subjects): 9%
  Spouse or significant other estimate of frequency of intoxication: Once or twice (number of subjects): 4
  Spouse or significant other estimate of frequency of intoxication: Once or twice (share of subjects): 36%
  Spouse or significant other estimate of frequency of intoxication: Several times a month (number of subjects): 4
  Spouse or significant other estimate of frequency of intoxication: Several times a month (share of subjects): 36%
[8]; FAH- subjects, 40 mg
  Spouse or significant other estimate of frequency of intoxication: At least once a week (number of subjects): 1
  Spouse or significant other estimate of frequency of intoxication: At least once a week (share of subjects): 8%
  Spouse or significant other estimate of frequency of intoxication: Every day (number of subjects): 1
  Spouse or significant other estimate of frequency of intoxication: Every day (share of subjects): 8%
  Spouse or significant other estimate of frequency of intoxication: Never (number of subjects): 2
  Spouse or significant other estimate of frequency of intoxication: Never (share of subjects): 15%
  Spouse or significant other estimate of frequency of intoxication: Once or twice (number of subjects): 3
  Spouse or significant other estimate of frequency of intoxication: Once or twice (share of subjects): 23%
  Spouse or significant other estimate of frequency of intoxication: Several times a month (number of subjects): 5
  Spouse or significant other estimate of frequency of intoxication: Several times a month (share of subjects): 38%
[8]; FAH- subjects, nalmefene 10 mg or 40 mg once daily
  number of HDDs: no clear treatment effects
[8]; FAH- subjects, throughout the study
  mean number of drinks (monthly total alcohol consumption): remained almost unchanged

— patent US20030153590A1, “Method of treating alcoholism or alcohol abuse” (OY CONTRAL PHARMA LTD, priority 2001, published 2003)
